The text below walks through data of ChEMBL document CHEMBL4359884, “Design, synthesis and biological evaluation of novel pleuromutilin derivatives possessing acetamine phenyl linker” (Eur J Med Chem, 2019).

Each structure is given as a SMILES string. Values after ≈ are worked out from the molar mass of the structure shown.

Data set [1] concerns Staphylococcus aureus. Nature of the data set: Bactericidal activity against methicillin-resistant Staphylococcus aureus ATCC 43300 assessed as reduction in colony forming unit at 4 times MIC incubated for 3 hrs followed by compound dilution with saline and then incubated for 20 hrs on MH agar plate by time-kill kinetics assay. It counts as functional.
For data set [2], the system named is Staphylococcus aureus. Nature of the data set: Antibacterial activity against Staphylococcus aureus ATCC 29213 assessed as bacterial growth inhibition incubated for 24 hrs by broth dilution method. Format: functional. Conditions: ATCC 29213, 24 h.
Data set [3] deals with Staphylococcus aureus. Nature of the data set: Antibacterial activity against methicillin-resistant Staphylococcus aureus ATCC 43300 assessed as bacterial growth inhibition incubated for 24 hrs by broth dilution method. Format: functional. Conditions: ATCC 43300, 24 h.
Data set [4] concerns Staphylococcus aureus. Nature of the data set: Antibacterial activity against Staphylococcus aureus AD3 assessed as bacterial growth inhibition incubated for 24 hrs by broth dilution method. It counts as functional. Conditions: AD3, 24 h.
Data set [5] has as its system Escherichia coli. Nature of the data set: Antibacterial activity against Escherichia coli ATCC 25922 assessed as bacterial growth inhibition incubated for 24 hrs by broth dilution method. It counts as functional. Conditions: ATCC 25922, 24 h.
In data set [6] the test system is Escherichia coli. Description: Antibacterial activity against Escherichia coli 9-1 assessed as bacterial growth inhibition incubated for 24 hrs by broth dilution method. Format: functional. Conditions: 9-1, 24 h.
Data set [7] has as its system Staphylococcus aureus. Description: Bactericidal activity against methicillin-resistant Staphylococcus aureus ATCC 43300 assessed as reduction in bacterial growth at 4 times MIC incubated for 24 hrs followed by compound dilution with saline and then incubated for 20 hrs on MH agar plate by time-kill kinetics assay relative to control. Details: scale not given: the % may be the effect or the level left. It counts as functional.

Data set [8] deals with Staphylococcus aureus. Nature of the data set: Antibacterial against methicillin-resistant Staphylococcus aureus ATCC 43300 assessed as post antibiotic effect time at 2 times MIC incubated for 1 hr followed by compound washout and then incubated for 20 hrs onto MH agar plate. It counts as functional.
Data set [9] relates to Staphylococcus aureus. Nature of the data set: Antibacterial against methicillin-resistant Staphylococcus aureus ATCC 43300 assessed as post antibiotic effect time at 4 times MIC incubated for 1 hr followed by compound washout and then incubated for 20 hrs onto MH agar plate. It counts as functional.
In data set [10] the test system is Staphylococcus aureus. Description: Antibacterial against methicillin-resistant Staphylococcus aureus ATCC 43300 assessed as post antibiotic effect time at 2 times MIC incubated for 2 hrs followed by compound washout and then incubated for 20 hrs onto MH agar plate. Format: functional.
The test system of data set [11] is Staphylococcus aureus. Nature of the data set: Antibacterial against methicillin-resistant Staphylococcus aureus ATCC 43300 assessed as post antibiotic effect time at 4 times MIC incubated for 2 hrs followed by compound washout and then incubated for 20 hrs onto MH agar plate. Format: functional.
Data set [12] can be described thus: Cmax in ICR mouse at 10 mg/kg, iv by LC-MS/MS analysis. It counts as ADME, organism-based. Details: dose 10 mg/kg, route intravenous. Conditions: in vivo.
Data set [13] in a line: Tmax in ICR mouse at 10 mg/kg, iv by LC-MS/MS analysis. It counts as ADME, organism-based. Conditions: in vivo.
Data set [14] is described as follows: Half life in ICR mouse at 10 mg/kg, iv by LC-MS/MS analysis. Format: ADME, organism-based. Conditions: in vivo.
Data set [15] in a line: Clearance in ICR mouse at 10 mg/kg, iv by LC-MS/MS analysis. Format: ADME, organism-based. Conditions: in vivo.
Data set [16] is described as follows: MRT in ICR mouse at 10 mg/kg, iv by LC-MS/MS analysis. Format: ADME, organism-based. Conditions: in vivo.
The nature of data set [17]: AUC (0 to t) in ICR mouse at 10 mg/kg, iv by LC-MS/MS analysis. Format: ADME, organism-based. Conditions: in vivo.
Data set [18] is described as follows: AUC (0 to infinity) in ICR mouse at 10 mg/kg, iv by LC-MS/MS analysis. It counts as ADME, organism-based. Set-up: dose 10 mg/kg, route intravenous, time infinity. Conditions: in vivo.
The test system of data set [19] is Staphylococcus aureus. Nature of the data set: Antibacterial activity against methicillin-resistant Staphylococcus aureus infected in neutropenic thigh infection ICR/Swiss mouse model assessed reduction in colony forming unit in thigh at 20 mg/kg, iv administered 2 hrs post infection and measured at 24 hrs after drug dosage. It counts as functional.
The test system of data set [20] is Staphylococcus aureus. Description: Antibacterial activity against methicillin-resistant Staphylococcus aureus infected in systemic infection ICR mouse model assessed as animal survival rate at 30 mg/kg, iv relative to control. Format: functional.

As to `C=C[C@]1(C)C[C@@H](OC(=O)CSc2ccccc2NC(=O)CN2CCOCC2)[C@]2(C)[C@H](C)CC[C@]3(CCC(=O)[C@H]32)[C@@H](C)[C@@H]1O`, the Activity with Staphylococcus aureus [1] is given as 2.19 log10CFU/ml; with Staphylococcus aureus [7], 100%; in the data set on Staphylococcus aureus [19], 1.4 log10CFU/ml; with Staphylococcus aureus [20], 60%. For the same compound, the MIC in the data set with Staphylococcus aureus [2] was 0.06 µg/mL (≈ 0.0979 µM); with Staphylococcus aureus [3], 0.06 µg/mL (≈ 0.0979 µM); in the data set with Staphylococcus aureus [4] it was 0.125 µg/mL (≈ 0.204 µM); in the data set on Escherichia coli [5] it was above 32 µg/mL; in the data set with Escherichia coli [6], above 32 µg/mL. The Time in the data set on Staphylococcus aureus [8] was 1.62 h; in the data set with Staphylococcus aureus [9], 2.05 h; with Staphylococcus aureus [10], 2.64 h; in the data set with Staphylococcus aureus [11], 3.47 h. The same compound gave a maximum concentration (Cmax) in [12] of 1760 ng/mL. Moreover, in data set [13], the time to peak (Tmax) came out at 4.98 min. The compound further had a half-life in [14] of 413 min. This compound also showed a clearance in data set [15] of 361 mL/min/kg. In data set [16], the mean residence time MRT came to 36.6 min. For the same compound, in [17], the AUC(0-t) worked out at 470 ng·h/mL. The compound also gave an AUC(0-inf) in data set [18] of 480 ng·h/mL.
